Each structure is given as a SMILES string.

T1 sequence (P08581 25-1390): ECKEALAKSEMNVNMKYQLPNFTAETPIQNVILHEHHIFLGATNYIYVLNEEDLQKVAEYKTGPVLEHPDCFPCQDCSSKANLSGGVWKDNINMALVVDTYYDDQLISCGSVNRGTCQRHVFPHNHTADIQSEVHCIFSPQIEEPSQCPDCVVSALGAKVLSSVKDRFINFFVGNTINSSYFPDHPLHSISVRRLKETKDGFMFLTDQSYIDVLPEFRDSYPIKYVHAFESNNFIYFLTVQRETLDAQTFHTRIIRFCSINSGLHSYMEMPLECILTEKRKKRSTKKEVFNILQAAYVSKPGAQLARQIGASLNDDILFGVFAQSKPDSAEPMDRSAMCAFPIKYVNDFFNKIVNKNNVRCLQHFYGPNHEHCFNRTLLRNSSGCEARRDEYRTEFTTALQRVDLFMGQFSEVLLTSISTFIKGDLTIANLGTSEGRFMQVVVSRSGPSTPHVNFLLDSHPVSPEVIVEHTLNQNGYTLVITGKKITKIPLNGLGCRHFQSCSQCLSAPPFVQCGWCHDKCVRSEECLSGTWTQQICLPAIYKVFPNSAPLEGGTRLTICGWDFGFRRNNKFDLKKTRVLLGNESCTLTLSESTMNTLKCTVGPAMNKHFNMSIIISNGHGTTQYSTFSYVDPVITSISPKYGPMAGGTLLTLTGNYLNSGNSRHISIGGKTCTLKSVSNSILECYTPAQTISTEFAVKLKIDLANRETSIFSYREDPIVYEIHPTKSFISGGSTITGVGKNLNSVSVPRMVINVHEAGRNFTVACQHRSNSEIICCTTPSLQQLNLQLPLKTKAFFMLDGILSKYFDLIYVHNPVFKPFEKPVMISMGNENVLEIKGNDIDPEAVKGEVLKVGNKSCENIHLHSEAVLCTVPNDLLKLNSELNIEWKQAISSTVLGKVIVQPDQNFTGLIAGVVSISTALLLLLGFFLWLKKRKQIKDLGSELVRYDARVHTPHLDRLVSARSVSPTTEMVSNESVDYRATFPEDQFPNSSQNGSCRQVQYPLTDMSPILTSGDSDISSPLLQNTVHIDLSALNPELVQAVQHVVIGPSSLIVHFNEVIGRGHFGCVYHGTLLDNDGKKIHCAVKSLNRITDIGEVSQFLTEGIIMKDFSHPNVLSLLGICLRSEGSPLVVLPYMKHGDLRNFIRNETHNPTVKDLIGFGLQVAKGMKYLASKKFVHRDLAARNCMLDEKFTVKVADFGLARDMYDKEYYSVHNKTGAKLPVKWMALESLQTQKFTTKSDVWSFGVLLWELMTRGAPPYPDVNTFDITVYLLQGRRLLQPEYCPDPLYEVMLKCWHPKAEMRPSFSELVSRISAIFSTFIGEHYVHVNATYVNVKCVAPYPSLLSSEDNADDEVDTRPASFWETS

The assay concerns the target T1, HGFR (Homo sapiens, UniProt P08581).
T1 construct: endogenous in cells; host or cells: MKN-45 human gastric cancer cells
Put plainly: Inhibitory activity against the HGFR autophosphorylation using ELISA (MKN-45 cells). The format is cell-based. The note with it: 1 hr with test substance. Here is the method:
Human gastric cancer cells (MKN-45) were suspended in a 1% FBS-containing RPMI1640 medium (purchased from Sigma). The cell suspension (1×10^5 cells/ml) was put in a 96-well plate for cell culture (purchased from NUNC, Production No. 167008) at 0.1 ml/well, and then cultured in a 5% CO2 incubator (37° C.) overnight. After the culture, from each well was removed the supernatant, followed by adding 0.05 ml of a 1% FBS-containing RPMI1640 medium. Then, the well was supplied with 0.05 ml of the test substance dissolved in dimethyl sulfoxide (diluted with a 1% FBS-containing RPMI1640 medium), followed by culturing in a 5% CO2 incubator (37° C.) for 1 hr. From each well was removed the supernatant, and each well was washed with 150 μl of PBS, followed by adding 100 μl of a lysis buffer (50 mM Hepes (pH 7.4), 150 mM NaCl, 10% (v/v) glycerol, 1% Triton X-100, 1.5 mM MgCl2, 1 mM EDTA (pH 8.0), 100 mM NaF, 1 mM PMSF, 10 μg/ml Aprotinin, 50 μg/ml Leupeptin, 1 μg/ml Pepstatin A and 1 mM Na3VO4). The plate was shaken at 4° C. for 1 hr to prepare the cell extract.
To a 96-well plate for ELISA (purchased from COSTAR, Production No. 3369) was added 50 μl of 60 mM bicarbonate buffer (pH 9.6) containing 50 μg/ml of an anti-phosphotyrosine antibody (PY20, purchased from Transduction Laboratory, Production No. P-11120). The plate was incubated at 4° C. overnight.
Each well of the plate prepared in 2. was washed three times with 200 μl of PBS, and supplied with 150 μl of 3% BSA/PBS, followed by incubating at room temperature for 2 hrs. Each well was washed three times with 200 μl of PBS, and supplied with 50 μl of the above cell extract, followed by incubating at 4° C. overnight. After the incubation, each well was washed three times with 250 μl of a washing solution (0.1% BSA, 20 mM Tris-HCl (pH 7.6), 137 mM NaCl, and 0.05% Tween-20), and supplied with 70 μl of anti-HGFR antibody (h-Met(C-12), purchased from Santa Cruz, Production No. sc-10) 2,000-fold diluted with a reaction solution (1% BSA, 20 mM Tris-HCl (pH 7.6), 137 mM NaCl and 0.05% Tween-20), followed by incubating at room temperature for 1 hr. The well was washed three times with 250 μl of the washing solution, and supplied with 70 μl of peroxidase-labelled anti-rabbit IgG antibody (purchased from Cell Signaling, Production No. 7074) 2,000-fold diluted with the reaction solution, followed by incubating at room temperature for 1 hr. Each well was washed three times with 250 μl of the washing solution, and supplied with 70 μl of TMB Membrane Peroxidase Substrate (purchased from Funakoshi, Production No. 50-5077-03), followed by incubating at room temperature for 10 min. Each well was supplied with 70 μl of 1 M phosphoric acid, and using the Plate Reader MTP-500 (Corona Electric), the absorbance of the well was instantly determined at a measurement wavelength of 450 nm. While defining the absorbance of a well supplied with the cell extract having no test substance as 100% HGFR autophosphorylation activity, and the absorbance of a well supplied with 50 μl of the lysis buffer as 0% HGFR autophosphorylation activity, the HGFR autophosphorylation activity (%) was calculated for each well.
For orientation: ELISA stands for enzyme-linked immunosorbent assay.
For `CN(C)CCN1CCC(N(C)C(=O)Nc2cc(Oc3ccc(NC(=O)C4(C(=O)Nc5ccc(F)cc5)CC4)cc3)ccn2)CC1` [Example 39, N-(4-{[2-({[{1-[2-(Dimethylamino)ethyl]piperidin-4-yl}(methyl)amino]carbonyl}amino)pyridin-4-yl]oxy}phenyl)-N′-(4-fluorophenyl)cyclopropane-1,1-dicarboxamide], the midpoint of inhibition, the IC50, lay at 16 nM.
The value for `O=C(Nc1cc(Oc2ccc(NC(=O)C3(C(=O)Nc4ccc(F)cc4)CC3)cc2)ccn1)N1CCCC1` [Example 69, N-(4-Fluorophenyl)-N′-[4-({2-[(pyrrolidin-1-ylcarbonyl)amino]pyridin-4-yl}oxy)phenyl]cyclopropane-1,1-dicarboxamide] was 37 nM; that for `CN1CCC(N(C)C(=O)Nc2cc(Oc3ccc(NC(=O)C4(C(=O)Nc5ccc(F)cc5)CC4)c(F)c3)ccn2)CC1` [Example 3, N-(2-Fluoro-4-{[2-({[methyl(1-methylpiperidin-4-yl)amino]carbonyl}amino)pyridin-4-yl]oxy}phenyl)-N′-(4-fluorophenyl)cyclopropane-1,1-dicarboxamide] was 19 nM; that for `CN(C)C1CN(C2CCN(C(=O)Nc3cc(Oc4ccc(NC(=O)C5(C(=O)Nc6ccc(F)cc6)CC5)cc4F)ccn3)CC2)C1` [Example 21, N-[4-({2-[({4-[3-(Dimethylamino)azetidin-1-yl]piperidin-1-yl}carbonyl)amino]pyridin-4-yl}oxy)-3-fluorophenyl]-N′-(4-fluorophenyl)cyclopropane-1,1-dicarboxamide] was 11 nM.
The value for `O=C(Nc1cc(Oc2ccc(NC(=O)C3(C(=O)Nc4ccc(F)cc4)CC3)c(F)c2)ccn1)N1CCC(N2CCNCC2)CC1` [Example 71, N-(4-Fluorophenyl)-N′-{2-fluoro-4-[(2-{[(4-piperazin-1-ylpiperidin-1-yl)carbonyl]amino}pyridin-4-yl)oxy]phenyl}cyclopropane-1,1-dicarboxamide] was 11 nM.
The value for `CCN1CCC(N(C)C(=O)Nc2cc(Oc3ccc(NC(=O)C4(C(=O)Nc5ccccc5)CC4)c(F)c3)ccn2)CC1` [Example 60, N-(4-{[2-({[(1-Ethylpiperidin-4-yl)(methyl)amino]carbonyl}amino)pyridin-4-yl]oxy}-2-fluorophenyl)-N′-phenylcyclopropane-1′-dicarboxamide] was 8 nM; that for `O=C(Nc1cc(Oc2ccc(NC(=O)C3(C(=O)Nc4ccc(F)cc4)CC3)cc2)ccn1)N1CCC1` [Example 70, N-[4-({2-[(Azetidin-1-ylcarbonyl)amino]pyridin-4-yl}oxy)phenyl]-N′-(4-fluorophenyl)cyclopropane-1,1-dicarboxamide] was 27 nM.
In the case of `O=C(Nc1cc(Oc2ccc(NC(=O)C3(C(=O)Nc4ccc(F)cc4)CC3)cc2F)ccn1)N1CCCC1` [Example 66, N-(4-Fluorophenyl)-N′-[3-fluoro-4-({2-[(pyrrolidin-1-ylcarbonyl)amino]pyridin-4-yl}oxy)phenyl]cyclopropane-1,1′-dicarboxamide], the IC50 (usually the point on the concentration scale where inhibition reaches its midpoint) stood at 13 nM.
The compound `CN(C)C1CCN(C(=O)Nc2cc(Oc3ccc(NC(=O)C4(C(=O)Nc5ccc(F)cc5)CC4)cc3F)ccn2)CC1` [Example 23, N-(4-{[2-({[4-(Dimethylamino)piperidin-1-yl]carbonyl}amino)pyridin-4-yl]oxy}-3-fluorophenyl)-N′-(4-fluorophenyl)cyclopropane-1,1-dicarboxamide] yielded an IC50 of 17 nM.
The value for `CN(C)[C@@H]1CCN(C(=O)Nc2cc(Oc3ccc(NC(=O)C4(C(=O)Nc5ccc(F)cc5)CC4)c(F)c3)ccn2)C1` [Example 47, N-(4-{[2-({[(3R)-3-(Dimethylamino)pyrrolidin-1-yl]carbonyl}amino)pyridin-4-yl]oxy}-2-fluorophenyl)-N′-(4-fluorophenyl)cyclopropane-1,1-dicarboxamide] was 30 nM; that for `O=C(Nc1cc(Oc2ccc(NC(=O)C3(C(=O)Nc4ccc(F)cc4)CC3)c(F)c2)ccn1)N1CCC(N2CCCC2)CC1` [Example 4, N-(4-Fluorophenyl)-N′-{2-fluoro-4-[(2-{[(4-pyrrolidin-1-ylpiperidin-1-yl)carbonyl]amino}pyridin-4-yl)oxy]phenyl}cyclopropane-1,1-dicarboxamide] was 14 nM.
In the case of `O=C(Nc1cc(Oc2ccc(NC(=O)C3(C(=O)Nc4ccc(F)cc4)CC3)c(F)c2)ccn1)N1CCOCC1` [Example 63, N-[2-Fluoro-4-({2-[(morpholin-4-ylcarbonyl)amino]pyridin-4-yl}oxy)phenyl]-N′-(4-fluorophenyl)cyclopropane-1,1-dicarboxamide] it was 21 nM; in that of `O=C(Nc1cc(Oc2ccc(NC(=O)C3(C(=O)Nc4ccc(F)cc4)CC3)cc2F)ccn1)N1CC(O)C1` [Example 80, N-{3-Fluoro-4-[(2-{[(3-hydroxyazetidin-1-yl)carbonyl]amino}pyridin-4-yl)oxy]phenyl}-N′-(4-fluorophenyl)cyclopropane-1,1-dicarboxamide], 14 nM; in that of `O=C(Nc1cc(Oc2ccc(NC(=O)C3(C(=O)Nc4ccc(F)cc4)CC3)cc2F)ncn1)N1CCC(N2CCC2)CC1` [Example 34, N-{4-[(6-{[(4-Azetidin-1-ylpiperidin-1-yl)carbonyl]amino}pyrimidin-4-yl)oxy]-3-fluorophenyl}-N′-(4-fluorophenyl)cyclopropane-1,1-dicarboxamide], 81 nM.
In the case of `CN(C)C1CN(C2CCN(C(=O)Nc3cc(Oc4ccc(NC(=O)C5(C(=O)Nc6ccc(F)cc6)CC5)c(F)c4)ccn3)CC2)C1` [Example 14, N-[4-({2-[({4-[3-(Dimethylamino)azetidin-1-yl]piperidin-1-yl}carbonyl)amino]pyridin-4-yl}oxy)-2-fluorophenyl]-N′-(4-fluorophenyl)cyclopropane-1,1-dicarboxamide] it was 19 nM.
`CN1CCN(C2CCN(C(=O)Nc3cc(Oc4ccc(NC(=O)C5(C(=O)Nc6ccc(F)cc6)CC5)cc4F)ccn3)CC2)CC1` [Example 20, N-(3-Fluoro-4-{[2-({[-4-(4-methylpiperazin-1-yl)piperidin-1-yl]-carbonyl}amino)pyridin-4-yl]oxy}phenyl)-N′-(4-fluorophenyl)cyclopropane-1,1-dicarboxamide] gave an IC50 of 22 nM.
In the case of `CN1CCC(N(C)C(=O)Nc2cc(Oc3ccc(NC(=O)C4(C(=O)Nc5ccccc5)CC4)c(F)c3)ccn2)CC1` [Example 48, N-(2-Fluoro-4-{[2-({[methyl(1-methylpiperidin-4-yl)amino]carbonyl}amino)pyridin-4-yl]oxy}phenyl)-N′-phenylcyclopropane-1,1-dicarboxamide] it was 12 nM.
In the case of `O=C(Nc1cc(Oc2ccc(NC(=O)C3(C(=O)Nc4ccc(F)cc4)CC3)cc2F)ccn1)N1CCC1` [Example 65, N-[4-({2-[(Azetidin-1-ylcarbonyl)amino]pyridin-4-yl}oxy)-3-fluorophenyl]-N′-(4-fluorophenyl)cyclopropane-1,1-dicarboxamide] it was 10 nM.
The value for `O=C(Nc1cc(Oc2ccc(NC(=O)C3(C(=O)Nc4ccc(F)cc4)CC3)c(F)c2)ccn1)N1CCC(CN2CCC2)CC1` [Example 37, N-(4-{[2-({[4-(Azetidin-1-ylmethyl)piperidin-1-yl]carbonyl}amino)pyridin-4-yl]oxy}-2-fluorophenyl)-N′-(4-fluorophenyl)cyclopropane-1,1-dicarboxamide] was 6.6 nM.
Turning to `CCN(CC)CCCNC(=O)Nc1cc(Oc2ccc(NC(=O)C3(C(=O)Nc4ccc(F)cc4)CC3)c(Cl)c2)ccn1` [Example 43, N-[2-Chloro-4-({2-[({[3-(diethylamino)propyl]amino}carbonyl)amino]pyridin-4-yl}oxy)phenyl]-N′-(4-fluorophenyl)cyclopropane-1,1-dicarboxamide], half-maximal inhibition (IC50) required 330 nM.

Source of the values: patent US7855290B2, “Pyridine derivatives and pyrimidine derivatives (3)” (Eisai R&D Management Co., Ltd., priority 2005, dated 2010).
